{"source": "patent US7022315B2", "about": "“Administration of a thiol-based chemoprotectant compound” (Oregon Health & Science University, priority 2000, dated 2006)", "key": {"[1]": {"system": "rats", "assay": "Blood counts after chemotherapy with or without NAC by left carotid aortic infusion (Example 1)", "format": "in vivo, rat", "excerpt": "The rats were set up for drug administration by pushing a catheter forward past the junction of the external and internal carotid arteries (toward the aorta), and temporarily sealing off the internal carotid for good measure so nothing goes to the brain (left carotid aortic infusion method). In patients where entry is via the femoral artery and the catheter is threaded through the aorta to get to the brain in the first place, one would just pull the catheter back to the aorta to do the NAC infusion.\nRats were treated with carboplatin (200 mg/m^2), melphalan (10 mg/m^2) and etoposide phosphate (100 mg/m^2). In the NAC animals, NAC was infused with the left carotid aortic infusion method immediately after the chemotherapeutic agents, at concentrations ranging from 400–1200 mg/M^2. White blood cells (wbc) and platelets (plt) were counted at baseline before the experiment and at 6 and 9–11 days after treatment with the chemotherapeutic agents. […] Counts are in 1000s per μl blood. […] The lack of white blood cell effect was not repeated as there were significant effects shown below.\nThe data in table 2 show additional results. […] White blood cells (wbc) and platelets (plt) were counted at baseline before the experiment and at 6 and 9 days after treatment with the chemotherapeutic agents."}, "[2]": {"system": "cultured tumor cells", "assay": "Paclitaxel cytotoxicity with BSO and NAC (WST)", "format": "cell-based"}, "[3]": {"system": "patients with moderate renal insufficiency", "details": "approximately 1200 mg per day orally, day before and day of contrast agent; computed tomography; cited from earlier work"}, "[4]": {"details": "administered intravenously; cited from earlier work"}, "[5]": {"system": "B.5 LX-1 cells", "assay": "cells", "method": "FIGS. 4A and 4B show cytoenhancement and chemoprotection. […] Cytotoxicity was assessed in cultured LX-1 SCLC cells, 1×10^4 cells per well in 96 well plates, using the WST colorometric assay. BSO cytoenhancement consisted of preincubation at 100 μM BSO for 18 hours. The chemoprotective agent was added immediately after chemotherapy. The experimental conditions were dose/responses for chemotherapy (carboplatin or etoposide phosphate) alone (m), BSO cytoenhancement ( ? ), N-acetylcysteine rescue, (1000 μg/ml N-acetylcysteine, n), or BSO cytoenhancement and N-acetylcysteine rescue (u). Data are expressed as the percentage of live cells compared to untreated control samples without chemotherapy and each point represents the mean±standard deviation of 4 wells.\nThe effects of BSO cytoenhancement and thiol chemoprotection on the dose/response relationships for cytotoxicity of the alkylating chemotherapeutics were evaluated in the B.5 LX-1 cells. BSO cytoenhancement consisted of preincubation with 100 μM BSO for about 18–24 hours prior to addition of chemotherapy, and rescue consisted of 1000–2000 μg/ml of thiol chemoprotectant added immediately after chemotherapy.\nCytoenhancement and chemoprotection against non-alkylating chemotherapeutic agents was also evaluated.\nHalf-maximal cytotoxic concentrations (EC50) are expressed as μg/ml. Each EC50 measurement comprised 6 concentrations with 4 wells per concentration, and each dose response was performed in triplicate for each chemotherapeutic agent. Data are reported as the mean±pooled standard deviation for three independent experiments. P values are shown for the reduction in EC50 by BSO treatment (*=P<0.05, **=P<0.01, ***=P<0.001)."}, "[6]": {"system": "B.5 LX-1 cells", "assay": "In situ TUNEL staining for DNA fragmentation", "format": "cell-based", "details": "melphalan 10 μg/ml, N-acetylcysteine 1000 μg/ml", "method": "FIGS. 7A and 7B show the effect of cytoenhancement and chemoprotection on apoptosis. […] Apoptosis was assessed in cultured LX-1 SCLC cells pretreated for 18 hours with or without 100 μM BSO. The experimental conditions were no addition (open bars), melphalan (10 μg/ml, striped bars) or melphalan (10 μg/ml) plus N-acetylcysteine (1000 μg/ml) (cross hatched bars) for 20 h prior to harvest. Caspase-2 activity is expressed as percentage activity in untreated control samples (mean±standard deviation, n=3). TUNEL staining is expressed as the percentage of cells showing positive staining.\nApoptosis was evaluated by measuring Caspase-2 enzymatic activity and by in situ TUNEL staining. […] The increase in caspase activity was variable between experiments and ranged from 50–100% at 7–8 h to 250–600% at 20–24 h after treatment with melphalan. […] In the experiment shown in FIG. 7B, TUNEL staining after melphalan treatment was positive in 29 of 3643 cells, compared to 7 of 4395 cells in the untreated control, and BSO treatment prior to melphalan increased the positive staining to 800 of 1699 cells. […] In both assays, activity was maximal with low doses of melphalan, or with a 1 hour pulse treatment with the doses used in the cytotoxicity assays."}, "[7]": {"system": "rat", "method": "FIG. 9 represents tests showing the effect of NAC route of administration on mortality+/−BSO. A Kaplan-Meier product limit analysis was used to evaluate the mortality due to chemoprotection with NAC. Rats were treated with or without BSO (10 mg/kg i.p. b.i.d.×3, black bars) prior to treatment with chemotherapy (Carboplatin 200 mg/m2, etoposide phosphate 100 mg/m2, melphalan 10 mg/m2). Chemoprotection consisted of NAC (1200 mg/m2) or NAC (1000 mg/m2) plus STS (8 g/m2) given either i.v. (n=17 BBSO, n=8+BSO) or by aortic infusion (n=19 BBSO, n=28+BSO).\nA dose escalation of NAC was performed in the rat.\nThe toxicity of NAC was determined when infused for bone marrow protection."}}}
{"compound": "CC(=O)N[C@@H](CS)C(=O)O", "note": "[NAC, N-acetylcysteine]", "values": [{"measurement": "platelet recovery from chemotherapy", "setting": "[1]", "value": "recovered from chemotherapy faster"}, {"measurement": "effect on BSO-enhanced paclitaxel toxicity", "setting": "[2]", "value": "completely reversed the enhanced toxicity"}, {"measurement": "effect on the dose response for paclitaxel alone", "setting": "[2]", "value": "did not change the dose response"}, {"measurement": "effect on renal function after radiographic contrast agent", "setting": "[3]", "value": "prevented the expected decline in renal function"}, {"measurement": "brain levels", "setting": "[4]", "value": "< 5", "unit": "%"}, {"measurement": "effect on BSO-enhanced taxol cytotoxicity", "setting": "[5]", "value": "completely reversed"}, {"measurement": "effect on melphalan-induced TUNEL staining", "setting": "[6]", "value": "reduced"}, {"measurement": "mortality and toxicity", "setting": "[7]; 1200 mg/kg by aortic infusion 30 minutes prior to chemotherapy, without BSO, 12 animals", "value": "no mortality nor any evidence of toxicity"}, {"measurement": "bone marrow protection", "setting": "[7]; 140–800 mg/kg i.v. immediately after chemotherapy, n=4", "value": "no detectable bone marrow protection"}, {"measurement": "toxic doses", "setting": "[7]; dose escalation, n=3", "value": "above 1200 mg/kg"}, {"measurement": "mortality by route of administration", "setting": "[7]; i.v. versus aortic infusion, Kaplan-Meier, P=0.0014", "value": "i.v. administration significantly more toxic than aortic infusion"}, {"measurement": "toxicity", "setting": "[7]; rat, in vivo, 1200 mg/kg", "value": "no toxicity"}]}
